Columns and labels:
[1] = molecular target: Factor XIa (Homo sapiens, UniProt P03951); assay: Inhibitor profile of ASP-440: Factor XIa; assay type: biochemical
[2] = system: AngII-induced retinal vascular permeability; assay: AngII-induced retinal vascular permeability in rats; assay type: in vivo, rat; conditions: AngII and ASP-440 via 2 Alzet pumps for 7 days; Evan's blue dye method
Procedure: Rats were implanted with a single subcutaneous osmotic pump containing Ang II or two pumps containing AngII and ASP-465, as indicated. RVP was measured using vitreous fluorophotometry after 3 days.
RVP was measured using Evan's blue dye method after 7 days.
We examined the effect of the kallikrein inhibitor ASP-465 on RVP induced by angiotensin II (AngII).

[3] = system: intrinsic coagulation pathway; assay: Plasma coagulation time, activation with Actin FS reagent; assay type: biochemical; conditions: at 10 μM; plasma activated with Actin FS reagent
[4] = system: astrocytes; assay: Plasma kallikrein-induced ERK phosphorylation in astrocytes; assay type: cell-based; conditions: astrocytes exposed to plasma kallikrein
From the text: (§1) We have also studied the effects of plasma kallikrein pathway activation on astrocytes. […] Exposure of astrocytes to plasma kallikrein potently stimulated ERK phosphorylation, and this action of kallikrein on astrocytes is not affected by B2-R antagonism (Hoe140). The effect of kallikrein on astrocytes was blocked by leupeptin, a protease inhibitor and C1-INH (data not shown). […] This is in contrast to the bradykinin effect, which is rapid and transient (data not shown). Plasma kallikrein's effect on ERK phosphorylation in astrocytes is dose dependent, reaching a maximal effect at 100 nM kallikrein (data not shown). […] In addition, plasma kallikrein binding to astrocytes was blocked by AS-440 (FIG. 9B) and C1-INH (data not shown).

[5] = molecular target: Factor IXa (Homo sapiens, UniProt P00740); assay: Inhibitor profile of ASP-440: Factor IXa; assay type: biochemical
[6] = molecular target: Porcine Pancreatic Kallikrein (Sus scrofa, UniProt P00752); assay: Inhibitor profile of ASP-440: Porcine Pancreatic Kallikrein; assay type: biochemical
[7] = molecular target: T1, endogenous PK in human plasma (Homo sapiens, UniProt P03952); assay: Inhibition of endogenous PK in human plasma; assay type: biochemical; conditions: read-out: Kiapp
T1 construct: from tissue; host or cells: human plasma

[8] = system: astrocytes; assay: Plasma kallikrein binding to astrocytes; assay type: cell-based
From the text: as §1

[9] = molecular target: purified human plasma kallikrein (PK) (Homo sapiens, UniProt P03952); assay: Inhibitor profile of ASP-440: plasma kallikrein; assay type: biochemical
[10] = molecular target: Tissue Factor-Factor VIIa (Homo sapiens, UniProt P08709); assay: Inhibitor profile of ASP-440: Tissue Factor-Factor VIIa; assay type: biochemical
[11] = molecular target: T2, endogenous PK in rat plasma (Rattus norvegicus, UniProt P14272); assay: Inhibition of endogenous PK in rat plasma; assay type: biochemical; conditions: read-out: Kiapp
T2 construct: from tissue; host or cells: rat plasma

[12] = molecular target: T3, Factor XIIa (Homo sapiens, UniProt P00748); assay: Inhibitor profile of ASP-440: Factor XIIa; assay type: biochemical
T3 sequence (P00748 373-615 limits assumed): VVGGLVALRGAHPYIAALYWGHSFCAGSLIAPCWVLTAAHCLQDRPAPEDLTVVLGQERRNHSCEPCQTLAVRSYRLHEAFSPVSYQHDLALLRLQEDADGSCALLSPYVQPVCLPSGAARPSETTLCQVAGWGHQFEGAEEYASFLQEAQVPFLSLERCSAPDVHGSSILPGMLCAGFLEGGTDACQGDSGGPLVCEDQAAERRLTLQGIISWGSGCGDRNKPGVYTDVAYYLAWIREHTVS

[13] = system: plasma kallikrein-induced hematoma; assay: Hematoma after intracerebral injection of purified activated plasma kallikrein in diabetic rats; assay type: in vivo, rat; conditions: 2 hrs following plasma kallikrein injection, 24 hrs pretreatment via subcutaneous osmotic pump
From the text: The increased response of diabetic rats to the model of intracerebral hemorrhage described above could be due to factors within the blood or due to an increased response in the neurovascular tissue. To evaluate the latter, we performed intracerebral injections of purified activated plasma kallikrein in rats with 1 mo of STZ-induced diabetes or age-matched non-diabetic controls. The contralateral hemisphere was subjected to an equivalent injection with saline vehicle. […]

[14] = system: recombinant tissue factor; assay: Plasma coagulation time, activation with Innovin reagent; assay type: biochemical; conditions: plasma activated by Innovin reagent; concentrations up to 30 μM
[15] = molecular target: Factor Xa (Homo sapiens, UniProt P00742); assay: Inhibitor profile of ASP-440: Factor Xa; assay type: biochemical
[16] = molecular target: Thrombin (Homo sapiens, UniProt P00734); assay: Inhibitor profile of ASP-440: Thrombin; assay type: biochemical
[17] = molecular target: Plasmin (Homo sapiens, UniProt P00747); assay: Inhibitor profile of ASP-440: Plasmin; assay type: biochemical
[18] = system: diabetes-induced retinal vascular permeability; assay: Diabetes-induced retinal vascular permeability in rats; assay type: in vivo, rat; conditions: STZ-induced diabetes, 28 days; subcutaneous osmotic pump; Evan's blue dye method
[19] = system: ischemia-induced cerebral vascular permeability and infarct; assay: Middle cerebral artery occlusion (MCAO) in rats with 4 weeks of STZ-induced diabetes; assay type: in vivo, rat; conditions: vs diabetic rats receiving vehicle
Procedure: Rats were implanted with a single subcutaneous osmotic pump containing ASP-440, as indicated. Cerebral vascular permeability was measured using Evan's blue dye method 2 hours after occlusion.
Infarct area was measured using Triphenyltetrazolium chloride stain after 24 hours of permanent occlusion.
The effect of diabetes on cerebral vascular permeability induced by ischemia was examined in rats subjected to middle cerebral artery occlusion (MCAO). […] Cerebral vascular permeability following MCAO was increased in the diabetic rats compared with nondiabetic rats (FIG. 14). […] MCAO-induced infarct area is increased in rats with 4 weeks of diabetes compare with nondiabetic rats (FIG. 15).

[20] = system: blood-induced hematoma; assay: Hematoma after intracerebral infusion of autologous blood in diabetic rats; assay type: in vivo, Sprague-Dawley rats; conditions: systemic treatment, 48 h after intracerebral infusion of autologous blood
Procedure: We have compared the response to intracerebral infusion of blood in Sprague-Dawley rats with 1 mo of STZ-induced diabetes with age matched non-diabetic control rats. Fifty μL of autologous whole blood was collected from the tail vein and immediately infused 1 mm anterior, 4 mm lateral and 6 mm in depth to the bregma using a 30 gauge needle at 20 μL per minute. The infusion needle was removed 10 min after injection and the burr hole was sealed with bone wax. Forty-eight hours after intracerebral injection, the animals were perfused with saline and surface hematoma area was examined by measurement of hematoma area relative to total hemisphere area.

Chain of Factor Xa (P00742 235-488 limits assumed): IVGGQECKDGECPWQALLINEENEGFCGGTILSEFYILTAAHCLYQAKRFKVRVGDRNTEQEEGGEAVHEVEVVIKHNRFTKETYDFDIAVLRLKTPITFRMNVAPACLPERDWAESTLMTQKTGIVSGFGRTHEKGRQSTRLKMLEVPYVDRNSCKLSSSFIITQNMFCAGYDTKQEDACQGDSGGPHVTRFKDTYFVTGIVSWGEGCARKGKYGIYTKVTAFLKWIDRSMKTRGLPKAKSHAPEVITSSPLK
Chain of Factor Xa (P00742 41-179 partner limits assumed): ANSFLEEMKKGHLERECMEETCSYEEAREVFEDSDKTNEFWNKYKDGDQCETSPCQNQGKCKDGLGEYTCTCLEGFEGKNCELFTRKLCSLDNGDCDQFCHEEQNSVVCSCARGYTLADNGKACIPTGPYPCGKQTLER
Chain of Factor IXa (P00740 227-461 limits assumed): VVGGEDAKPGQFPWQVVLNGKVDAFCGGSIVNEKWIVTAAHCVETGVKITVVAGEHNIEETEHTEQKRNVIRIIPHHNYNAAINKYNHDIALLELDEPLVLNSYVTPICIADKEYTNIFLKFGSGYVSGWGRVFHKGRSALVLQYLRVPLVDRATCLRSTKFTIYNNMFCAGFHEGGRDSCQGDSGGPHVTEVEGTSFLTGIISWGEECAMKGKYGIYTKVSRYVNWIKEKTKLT
Chain of Factor IXa (P00740 47-191 partner limits assumed): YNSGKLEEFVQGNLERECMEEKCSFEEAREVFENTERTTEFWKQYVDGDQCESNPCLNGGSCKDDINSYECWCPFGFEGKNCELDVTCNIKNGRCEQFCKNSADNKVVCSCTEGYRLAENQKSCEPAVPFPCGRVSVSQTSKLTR
Chain of Tissue Factor-Factor VIIa (P08709 213-466 limits assumed): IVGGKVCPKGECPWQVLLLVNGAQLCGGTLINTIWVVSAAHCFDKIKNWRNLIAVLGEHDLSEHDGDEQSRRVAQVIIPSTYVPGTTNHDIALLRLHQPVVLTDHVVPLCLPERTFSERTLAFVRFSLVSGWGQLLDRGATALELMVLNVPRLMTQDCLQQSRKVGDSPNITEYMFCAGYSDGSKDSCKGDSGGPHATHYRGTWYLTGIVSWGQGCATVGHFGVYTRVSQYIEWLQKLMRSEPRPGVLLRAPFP
Chain of Tissue Factor-Factor VIIa (P08709 61-212 partner limits assumed): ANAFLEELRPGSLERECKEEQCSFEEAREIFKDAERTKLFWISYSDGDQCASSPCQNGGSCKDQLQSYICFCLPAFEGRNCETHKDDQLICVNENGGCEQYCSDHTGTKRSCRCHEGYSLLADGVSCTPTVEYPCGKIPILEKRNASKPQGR
Chain of Tissue Factor-Factor VIIa (P13726 33-295 partner): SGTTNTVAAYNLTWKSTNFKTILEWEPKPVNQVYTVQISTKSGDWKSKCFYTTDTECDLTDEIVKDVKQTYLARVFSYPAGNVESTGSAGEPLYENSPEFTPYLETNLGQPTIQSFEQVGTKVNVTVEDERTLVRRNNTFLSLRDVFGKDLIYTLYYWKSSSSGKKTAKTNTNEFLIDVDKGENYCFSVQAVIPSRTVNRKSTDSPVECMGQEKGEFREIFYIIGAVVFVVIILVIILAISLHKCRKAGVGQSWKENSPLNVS
Chain of Plasmin (P00747 581-810 limits assumed, species assumed): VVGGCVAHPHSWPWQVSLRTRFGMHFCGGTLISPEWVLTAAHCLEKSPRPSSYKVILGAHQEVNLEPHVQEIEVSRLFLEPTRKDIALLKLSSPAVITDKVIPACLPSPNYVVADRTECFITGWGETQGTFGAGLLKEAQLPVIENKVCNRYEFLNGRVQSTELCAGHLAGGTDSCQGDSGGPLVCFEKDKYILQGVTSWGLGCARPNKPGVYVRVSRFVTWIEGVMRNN
Chain of Plasmin (P00747 97-580 partner limits assumed, species assumed): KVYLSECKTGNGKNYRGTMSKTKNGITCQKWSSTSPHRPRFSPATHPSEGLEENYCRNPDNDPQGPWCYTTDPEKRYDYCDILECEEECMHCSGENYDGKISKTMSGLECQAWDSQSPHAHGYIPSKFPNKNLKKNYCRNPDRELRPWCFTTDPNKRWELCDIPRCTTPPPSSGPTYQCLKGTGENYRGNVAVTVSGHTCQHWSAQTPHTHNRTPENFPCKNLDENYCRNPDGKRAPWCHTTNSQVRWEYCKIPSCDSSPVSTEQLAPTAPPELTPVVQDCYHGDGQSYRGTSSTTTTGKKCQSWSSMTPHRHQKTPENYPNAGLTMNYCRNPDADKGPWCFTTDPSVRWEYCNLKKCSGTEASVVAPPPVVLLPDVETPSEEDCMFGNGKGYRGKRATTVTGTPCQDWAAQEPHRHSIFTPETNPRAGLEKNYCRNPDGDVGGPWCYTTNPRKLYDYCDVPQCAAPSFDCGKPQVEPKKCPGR
Chain of Factor XIa (P03951 388-625 limits assumed): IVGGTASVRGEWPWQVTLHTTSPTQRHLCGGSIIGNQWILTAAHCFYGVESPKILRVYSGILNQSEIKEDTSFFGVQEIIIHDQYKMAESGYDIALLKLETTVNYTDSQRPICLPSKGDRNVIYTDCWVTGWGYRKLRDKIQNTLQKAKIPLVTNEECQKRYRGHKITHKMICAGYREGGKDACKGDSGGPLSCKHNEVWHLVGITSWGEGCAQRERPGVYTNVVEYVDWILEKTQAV
Chain of Factor XIa (P03951 19-387 partner limits assumed): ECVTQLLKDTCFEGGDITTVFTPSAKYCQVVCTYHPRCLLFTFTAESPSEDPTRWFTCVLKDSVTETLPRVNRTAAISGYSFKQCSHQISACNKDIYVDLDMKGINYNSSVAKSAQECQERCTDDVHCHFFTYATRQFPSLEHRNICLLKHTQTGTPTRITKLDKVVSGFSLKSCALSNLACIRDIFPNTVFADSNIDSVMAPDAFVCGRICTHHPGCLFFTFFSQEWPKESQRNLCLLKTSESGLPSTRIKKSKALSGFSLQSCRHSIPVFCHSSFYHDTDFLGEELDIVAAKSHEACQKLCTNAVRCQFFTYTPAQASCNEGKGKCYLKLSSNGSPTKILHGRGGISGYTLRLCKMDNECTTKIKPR
Chain of purified human plasma kallikrein (PK) (P03952 20-638): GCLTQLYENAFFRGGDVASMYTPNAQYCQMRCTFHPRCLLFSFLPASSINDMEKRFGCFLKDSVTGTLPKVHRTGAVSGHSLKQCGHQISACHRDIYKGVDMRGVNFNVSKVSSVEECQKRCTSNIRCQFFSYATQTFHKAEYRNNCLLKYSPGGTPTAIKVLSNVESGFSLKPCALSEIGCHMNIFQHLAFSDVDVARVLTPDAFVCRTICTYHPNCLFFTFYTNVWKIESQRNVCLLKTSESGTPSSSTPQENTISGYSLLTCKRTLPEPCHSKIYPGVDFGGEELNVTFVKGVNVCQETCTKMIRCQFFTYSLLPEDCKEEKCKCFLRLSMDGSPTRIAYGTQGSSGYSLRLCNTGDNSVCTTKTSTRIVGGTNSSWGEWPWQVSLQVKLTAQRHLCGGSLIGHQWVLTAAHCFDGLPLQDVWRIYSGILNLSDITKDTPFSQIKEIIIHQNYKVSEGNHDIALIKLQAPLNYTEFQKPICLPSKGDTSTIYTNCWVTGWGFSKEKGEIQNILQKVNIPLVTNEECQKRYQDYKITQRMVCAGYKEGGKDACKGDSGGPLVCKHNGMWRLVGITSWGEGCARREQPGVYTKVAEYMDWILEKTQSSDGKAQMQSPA
Chain of Porcine Pancreatic Kallikrein (P00752 8-246): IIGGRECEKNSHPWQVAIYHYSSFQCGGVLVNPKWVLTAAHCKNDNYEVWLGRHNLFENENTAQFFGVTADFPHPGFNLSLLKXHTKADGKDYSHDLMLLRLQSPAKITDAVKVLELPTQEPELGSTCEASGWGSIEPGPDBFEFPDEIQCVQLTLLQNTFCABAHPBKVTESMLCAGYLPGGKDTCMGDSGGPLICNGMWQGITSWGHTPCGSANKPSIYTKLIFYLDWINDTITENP
T2 sequence (P14272 20-638): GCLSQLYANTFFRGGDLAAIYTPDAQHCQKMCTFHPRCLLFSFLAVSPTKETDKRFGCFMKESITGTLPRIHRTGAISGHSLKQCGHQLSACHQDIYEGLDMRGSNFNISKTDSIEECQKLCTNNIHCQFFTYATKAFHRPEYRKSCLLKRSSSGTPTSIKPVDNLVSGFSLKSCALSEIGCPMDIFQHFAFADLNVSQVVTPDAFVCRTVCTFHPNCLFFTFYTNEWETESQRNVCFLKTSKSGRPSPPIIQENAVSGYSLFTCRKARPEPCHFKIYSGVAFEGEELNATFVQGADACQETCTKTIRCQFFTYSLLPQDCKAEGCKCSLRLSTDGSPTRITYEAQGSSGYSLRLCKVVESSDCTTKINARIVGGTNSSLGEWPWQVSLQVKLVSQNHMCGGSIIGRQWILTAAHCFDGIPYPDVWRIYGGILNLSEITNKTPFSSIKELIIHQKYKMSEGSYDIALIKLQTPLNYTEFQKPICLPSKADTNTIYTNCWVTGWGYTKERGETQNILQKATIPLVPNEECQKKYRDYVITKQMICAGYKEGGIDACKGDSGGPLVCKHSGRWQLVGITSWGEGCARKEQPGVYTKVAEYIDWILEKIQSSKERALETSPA
T1 sequence (P03952 20-638): as the sequence (P03952 20-638) above

Ki ([1]; Factor XIa): 120 µM | inhibition at 1 µM ([1]; predicted inhibition at 1 μM): 0% | inhibition at 10 µM ([1]; predicted inhibition at 10 μM): 7% | Ki ([5]; Factor IXa): > 100 µM | inhibition at 1 µM ([5]; predicted inhibition at 1 μM): 0% | inhibition at 10 µM ([5]; predicted inhibition at 10 μM): 0% | Ki ([6]; Porcine Pancreatic Kallikrein): > 100 µM | inhibition at 1 µM ([6]; predicted inhibition at 1 μM): 0% | inhibition at 10 µM ([6]; predicted inhibition at 10 μM): 0% | Ki [7]: 0.2 µM | plasma kallikrein binding to astrocytes [8]: blocked | Ki ([9]; PlasmaKallikrein): 0.1 µM | inhibition at 1 µM ([9]; predicted inhibition at 1 μM): 91% | inhibition at 10 µM ([9]; predicted inhibition at 10 μM): 99% | mode of inhibition ([9]; purified human plasma kallikrein): competitive and reversible | Ki ([10]; Tissue Factor-Factor VIIa): 160 µM | inhibition at 1 µM ([10]; predicted inhibition at 1 μM): 0% | inhibition at 10 µM ([10]; predicted inhibition at 10 μM): 6% | Ki [11]: 0.4 µM | Ki ([12]; Factor XIIa): > 100 µM | inhibition at 1 µM ([12]; predicted inhibition at 1 μM): 0% | inhibition at 10 µM ([12]; predicted inhibition at 10 μM): 1% | Ki ([15]; Factor Xa): 85 µM | inhibition at 1 µM ([15]; predicted inhibition at 1 μM): 0% | inhibition at 10 µM ([15]; predicted inhibition at 10 μM): 11% | Ki ([16]; Thrombin): 110 µM | inhibition at 1 µM ([16]; predicted inhibition at 1 μM): 1% | inhibition at 10 µM ([16]; predicted inhibition at 10 μM): 9% | Ki ([17]; Plasmin): 16 µM | inhibition at 1 µM ([17]; predicted inhibition at 1 μM): 6% | inhibition at 10 µM ([17]; predicted inhibition at 10 μM): 38%
Structure (SMILES): N=C(N)c1ccc(CNC(=O)c2cnn(Cc3ccccc3)c2)cc1 [ASP-440, 1-Benzyl-1H-pyrazole-4-carboxylic acid 4-carbamimidoyl-benzylamide]
RVP [2]: normal levels of RVP | prolongation of coagulation time in plasma [3]: ~50% | effect of kallikrein on ERK phosphorylation [4]: blocked | hematoma response [13]: decreased | effect on coagulation time [14]: without measurable effect | RVP [18]: normal levels of RVP | reduction of cerebral vascular permeability ([19]; 3 days pretreatment via subcutaneous osmotic pump, MCAO for 2 hrs): about 50% | decrease of infarct area ([19]; treatment 3 days prior to MCAO, 24 hours of permanent occlusion): about 40% | hematoma area [20]: reduced hematoma area in diabetic rats to a level comparable to that observed in non-diabetic controls

Reference: US8658685B2, “Methods for treatment of kallikrein-related disorders” (Activesite Pharmaceuticals, Inc., priority 2008, dated 2014)
